Results on 45 compounds are retold here after patent US20070276011A1, “Plasminogen Activator Inhibitor-1 Inhibitor” (priority 2003, published 2007).

The target in the first experiment is recombinant human PAI-1 (Homo sapiens, UniProt P05121). Nature of the experiment: PAI-1 inhibitory activity, Test Method A (tPA fluorogenic substrate, Tris buffer pH8.0, 37 C). The settings on record: 25 μM test compound; Test Method A. The experiment is classed as biochemical.
recombinant human PAI-1, sequence (P05121 24-402): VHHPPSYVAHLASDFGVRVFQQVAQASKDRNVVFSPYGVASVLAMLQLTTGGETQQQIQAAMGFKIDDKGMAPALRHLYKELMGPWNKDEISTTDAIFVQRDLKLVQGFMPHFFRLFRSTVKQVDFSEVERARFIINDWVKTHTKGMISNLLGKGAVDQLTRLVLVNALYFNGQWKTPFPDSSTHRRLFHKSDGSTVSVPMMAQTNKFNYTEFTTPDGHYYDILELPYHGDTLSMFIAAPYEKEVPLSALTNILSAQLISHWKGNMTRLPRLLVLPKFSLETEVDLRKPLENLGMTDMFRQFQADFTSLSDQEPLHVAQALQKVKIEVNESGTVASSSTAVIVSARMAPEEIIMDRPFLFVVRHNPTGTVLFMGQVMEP
As for `COc1ccc(C=C2SC(=O)N(Cc3ccc(Cl)c(Cl)c3)C2=O)cc1NC(=O)c1ccc(O)c(O)c1` [compound 359, 5-[4-Methoxy-3-(3,4-dihydroxybenzoylamino)benzylidene]-3-(3,4-dichlorobenzyl)thiazolidine-2,4-dione], the “Inhibitory Ratio at 25 μM (%)” value is listed as above 99%.

On to `COc1ccc(-c2cc(C=C3SC(=O)N(Cc4ccc(Cl)c(Cl)c4)C3=O)ccc2OC)cc1` [compound 448, 5-[4-Methoxy-3-(4-methoxyphenyl)benzylidene]-3-(3,4-dichlorobenzyl)thiazolidine-2,4-dione], for which the “Inhibitory Ratio at 25 μM (%)” value was determined as 51%.

Regarding `O=C(Nc1ccc(O)c(O)c1)c1cc(C=C2SC(=O)N(Cc3ccc(Cl)cc3Cl)C2=O)ccc1O` [compound 398], the “Inhibitory Ratio at 25 μM (%)” value was above 99%.

Regarding `COc1ccc(NC(=O)c2cc(C=C3SC(=O)N(Cc4cc(C)cc(C)c4)C3=O)ccc2O)cc1OC` [compound 393, 5-[4-Hydroxy-3-(3,4-dimethoxyphenylcarbamoyl)benzylidene]-3-(3,5-dimethylbenzyl)thiazolidine-2,4-dione], the “Inhibitory Ratio at 25 μM (%)” value is reported as above 99%.

As to `O=C1SC(=Cc2cc(C=Cc3ccccc3)ccc2O)C(=O)N1Cc1ccc(Cl)c(Cl)c1` [compound 322, 5-(2-Hydroxy-5-styrylbenzylidene)-3-(3,4-dichlorobenzyl)thiazolidine-2,4-dione], the “Inhibitory Ratio at 25 μM (%)” value worked out at 89%.

For `CCOC1=NN(c2ccc([N+](=O)[O-])cc2)C(=O)C1=Cc1cc(C=Cc2ccccc2)ccc1O` [compound 541, 4-(2-hydroxy-5-styrylbenzylidene)-1-(4-nitrophenyl)-3-ethoxy-2-pyrazolin-5-one], the “Inhibitory Ratio at 25 μM (%)” value was above 99%.

Turning to `O=C(OCc1ccccc1)c1cc(C=C2SC(=O)N(Cc3ccc(Cl)c(Cl)c3)C2=O)cc(O)c1O` [compound 463, 5-[3,4-Dihydroxy-5-(benzyloxycarbonyl)benzylidene]-3-(3,4-dichlorobenzyl)thiazolidine-2,4-dione], the “Inhibitory Ratio at 25 μM (%)” value was above 99%.

Turning to `CC(C)C1=NN(c2ccc(Cl)c(Cl)c2)C(=O)C1=Cc1cc(C=Cc2ccc(Oc3ccccc3)cc2)ccc1O` [Compound No. 566], the “Inhibitory Ratio at 25 μM (%)” value was found to be 76%.

`COc1ccc(NC(=O)c2cc(C=C3SC(=O)N(Cc4cc(F)cc(F)c4)C3=O)ccc2O)cc1OC` [compound 385, 5-[4-Hydroxy-3-(3,4-dimethoxyphenylcarbamoyl)benzylidene]-3-(3,5-difluorobenzyl)thiazolidine-2,4-dione]: the “Inhibitory Ratio at 25 μM (%)” value is above 99%.

Turning to `O=C(Nc1ccc2c(c1)OCO2)c1cc(C=C2SC(=O)N(Cc3ccc(Cl)c(Cl)c3)C2=O)ccc1O` [compound 428], the “Inhibitory Ratio at 25 μM (%)” value is 86%.

For the compound `CC(C)C1=NN(c2cc(Cl)cc(Cl)c2)C(=O)C1=Cc1cc(Br)ccc1O` [compound 526], the “Inhibitory Ratio at 25 μM (%)” value is listed as above 99%.

For `COc1cc(C=C2SC(=O)N(Cc3ccc(Cl)c(Cl)c3)C2=O)cc(C(=O)Nc2cc(C(F)(F)F)cc(C(F)(F)F)c2)c1O` [compound 438], the “Inhibitory Ratio at 25 μM (%)” value is given as above 99%.

As to `O=C(O)c1ccc(NC(=O)c2cc(C=C3SC(=O)N(Cc4ccc(Cl)c(Cl)c4)C3=O)ccc2O)cc1` [compound 419], the “Inhibitory Ratio at 25 μM (%)” value was above 99%.

Regarding `CC(C)C1=NN(c2ccc([N+](=O)[O-])cc2)C(=O)C1=Cc1cc(C=Cc2ccccc2)ccc1O` [compound 531, 4-(21-Hydroxy-5-styrylbenzylidene)-1-(4-nitrophenyl)-3-isopropyl-2-pyrazolin-5-one], the “Inhibitory Ratio at 25 μM (%)” value is listed as 50%.

With `O=C1SC(=Cc2ccc(O)c(O)c2)C(=O)N1Cc1cnc(Cl)c(Cl)c1` [compound 304, 5-(3,4-Dihydroxybenzylidene)-3-[(5,6-dichloropyridin-3-yl)-methyl]thiazolidine-2,4-dione], the “Inhibitory Ratio at 25 μM (%)” value was above 99%.

In the case of `O=C(Nc1ccc(Cl)nc1)c1cc(C=C2SC(=O)N(Cc3ccc(C(F)(F)F)cc3)C2=O)ccc1O` [compound 392], the “Inhibitory Ratio at 25 μM (%)” value was above 99%.

`O=C1SC(=Cc2ccc3c(c2)OCO3)C(=O)N1Cc1ccc(Cl)cc1Cl` [compound 336]: the “Inhibitory Ratio at 25 μM (%)” value came to 61%.

For the compound `COc1ccc(C(=O)Nc2cc(C=C3SC(=O)N(Cc4ccc(Cl)c(Cl)c4)C3=O)ccc2OC)cc1` [compound 381, 5-[4-methoxy-3-(4-methoxybenzoylamino)benzylidene]-3-(3,4-dichlorobenzyl)thiazolidine-2,4-dione], the “Inhibitory Ratio at 25 μM (%)” value turned out to be 27%.

Take `COC(=O)c1ccc(Cl)cc1NC(=O)c1cc(C=C2SC(=O)N(Cc3ccc(Cl)c(Cl)c3)C2=O)ccc1O` [compound 453, 5-[4-hydroxy-3-(2-methoxycarbonyl-5-chlorophenylcarbamoyl)-benzylidene]-3-(3,4-dichlorobenzyl)thiazolidine-2,4-dione]: the “Inhibitory Ratio at 25 μM (%)” value is listed as above 99%.

`CC(C)C1=NN(Cc2ccc(Cl)c(Cl)c2)C(=O)C1=Cc1cc(O)c(O)cc1O.N=C(N)NCCC[C@H](N)C(=O)O.N=C(N)NCCC[C@H](N)C(=O)O.N=C(N)NCCC[C@H](N)C(=O)O` [compound 553, tri(L-(+)-arginine) salt of 4-(2,4,5-trihydroxybenzylidene)-1-(3,4-dichlorobenzyl)-3-isopropyl-2-pyrazolin-5-one]: the “Inhibitory Ratio at 25 μM (%)” value was above 99%.

As for `COc1ccc(NC(=O)c2cc(C=C3SC(=O)N(Cc4ccc(Cl)c(Cl)c4)C3=O)ccc2O)cc1OC` [compound 351, 5-[4-Hydroxy-3-(3,4-dimethoxyphenylcarbamoyl)benzylidene]-3-(3,4-dichlorobenzyl)thiazolidine-2,4-dione], the “Inhibitory Ratio at 25 μM (%)” value is 54%.

For the compound `O=C(O)c1cc(C=C2SC(=O)N(Cc3ccc(Cl)c(Cl)c3)C2=O)ccc1O` [compound 358, 5-(3-Carboxy-4-hydroxybenzylidene)-3-(3,4-dichlorobenzyl)thiazolidine-2,4-dione], the “Inhibitory Ratio at 25 μM (%)” value amounted to 95%.

As to `COc1cc(C=C2SC(=O)N(Cc3ccc(Cl)c(Cl)c3)C2=O)cc([N+](=O)[O-])c1O` [compound 346, 5-(3-methoxy-4-hydroxy-5-nitrobenzylidene)-3-(3,4-dichlorobenzyl)thiazolidine-2,4-dione], the “Inhibitory Ratio at 25 μM (%)” value is above 99%.

Still in this experiment, the particulars now being: test compound 25 μM; Test Method A.
As to `O=C1SC(=Cc2ccc(O)c(O)c2)C(=O)N1Cc1ccc(Br)cc1` [compound 37], the “Inhibitory Ratio at 25 μM (%)” value was above 99%.

Turning to `Cc1cccc(N2N=C(C(C)C)C(=Cc3cc(O)c(O)c(O)c3)C2=O)c1` [compound 157], the “Inhibitory Ratio at 25 μM (%)” value is recorded as 37%.

As to `CC(C)C1=NN(c2cc(Cl)cc(Cl)c2)C(=O)C1=Cc1cc(O)c(O)c(O)c1` [compound 130], the “Inhibitory Ratio at 25 μM (%)” value is above 99%.

On to `CC1=NN(c2cccc(Cl)c2)C(=O)C1=Cc1cc(O)c(O)cc1O` [compound 158], for which the “Inhibitory Ratio at 25 μM (%)” value worked out at 72%.

On to `CC(C)C1=NN(c2ccc(Cl)c(Cl)c2)C(=O)C1=Cc1ccc(O)c(O)c1` [compound 140], for which the “Inhibitory Ratio at 25 μM (%)” value is on record as above 99%.

As to `CC1=NN(c2ccc(Cl)c(C(=O)O)c2)C(=O)C1=Cc1ccc(-c2cccc(F)c2)o1` [compound 192], the “Inhibitory Ratio at 25 μM (%)” value is reported as 44%.

For `O=C1SC(=Cc2ccc(O)c(O)c2)C(=O)N1Cc1cccc(Cl)c1Cl` [compound 19], the “Inhibitory Ratio at 25 μM (%)” value is above 99%.

Take `O=C(O)c1cccc(N2N=C(C(F)(F)F)C(=Cc3ccc(-c4cc(Cl)cc(Cl)c4)o3)C2=O)c1` [compound 162]: the “Inhibitory Ratio at 25 μM (%)” value is on record as 56%.

For `O=C1SC(=Cc2ccc(O)c(O)c2)C(=O)N1Cc1cc(Br)cc(Br)c1` [compound 46, 5-(3,4-Dihydroxybenzylidene)-3-(3,5-dibromobenzyl)thiazolidine-2,4-dione], the “Inhibitory Ratio at 25 μM (%)” value is reported as above 99%.

For the compound `O=C(O)c1cccc(N2N=C(C(F)(F)F)C(=Cc3ccc(-c4cc(Cl)cc(Cl)c4)o3)C2=O)c1` [compound 218], the “Inhibitory Ratio at 25 μM (%)” value amounted to 95%.

Take `O=C1SC(=Cc2ccc(O)c(O)c2)C(=O)N1Cc1cc(C(F)(F)F)cc(C(F)(F)F)c1` [compound 4]: the “Inhibitory Ratio at 25 μM (%)” value is listed as above 99%.

Consider `CC(C)(C)c1cc(CN2C(=O)SC(=Cc3cccc(O)c3O)C2=O)cc(C(C)(C)C)c1O` [compound 13, 5-(2,3-Dihydroxybenzylidene)-3-[3,5-di(tert-butyl)-4-hydroxybenzyl]-thiazolidine-2,4-dione], for which the “Inhibitory Ratio at 25 μM (%)” value is reported as above 99%.

As for `O=C1C(=Cc2ccc(O)c(O)c2)C(C(F)(F)F)=NN1c1cc(Cl)cc(Cl)c1` [compound 147, 4-(3,4-Dihydroxybenzylidene)-1-(3,5-dichlorophenyl)*3-trifluoromethyl-2-pyrazolin-5-one], the “Inhibitory Ratio at 25 μM (%)” value is on record as above 99%.

Consider `COc1cc(C=C2SC(=O)N(Cc3ccc(Cl)c(Cl)c3)C2=O)cc(O)c1O` [compound 38], for which the “Inhibitory Ratio at 25 μM (%)” value is above 99%.

Take `O=C1SC(=Cc2cc(O)c(O)c(O)c2)C(=O)N1Cc1cccc([N+](=O)[O-])c1` [compound 52]: the “Inhibitory Ratio at 25 μM (%)” value is reported as 50%.

For `COC(=O)c1cccc(N2N=C(C(F)(F)F)C(=Cc3ccc(-c4cc(C(F)(F)F)cc(C(F)(F)F)c4)o3)C2=O)c1` [compound 177, 4-({5-[3,5-Bis(trifluoromethyl)phenyl]furan-2-yl}methylene)-1-(3-methoxycarbonylphenyl)-3-trifluoromethyl-2-pyrazolin-5-one], the “Inhibitory Ratio at 25 μM (%)” value turned out to be 86%.

For the compound `CC1=NN(c2ccc(Cl)cc2)C(=O)C1=Cc1cc(O)c(O)cc1O` [compound 224], the “Inhibitory Ratio at 25 μM (%)” value came to 69%.

Turning to `CCOC1=NN(c2ccc([N+](=O)[O-])cc2)C(=O)C1=Cc1cc(O)c(O)cc1O` [compound 223], the “Inhibitory Ratio at 25 μM (%)” value turned out to be 88%.

As for `CCOC1=NN(c2ccc([N+](=O)[O-])cc2)C(=O)C1=Cc1cc(O)c(O)c(O)c1` [compound 132], the “Inhibitory Ratio at 25 μM (%)” value is above 99%.

Regarding `CC1=NN(c2ccc(Cl)c(C(=O)O)c2)C(=O)C1=Cc1ccc(-c2cccc(Cl)c2C)o1` [compound 190], the “Inhibitory Ratio at 25 μM (%)” value was determined as 81%.

For the compound `O=C1SC(=Cc2ccc(O)c(O)c2)C(=O)N1Cc1cccc(Cl)c1` [compound 31], the “Inhibitory Ratio at 25 μM (%)” value is listed as above 99%.

As to `COC(=O)c1cccc(N2N=C(c3ccccc3)C(=Cc3ccc(O)c(O)c3)C2=O)c1` [compound 154, 4-(3,4-Dihydroxybenzylidene)-1-[3-(methoxycarbonyl)phenyl]-3-phenyl-2-pyrazolin-5-one], the “Inhibitory Ratio at 25 μM (%)” value is above 99%.
